# Measurements reported in paper PMC8955854, “The Peptide Hormone CNMa Influences Egg Production in the Mosquito Aedes aegypti” (Insects, 2022).
# Entries after “also recorded” stand apart in the source; their conditions may differ.
# What was measured:
# [1] = tested on: JH-responsive gene kruppel-homolog 1 (kh-1); test: kh-1 transcript abundance (qPCR) after injection into females; format: in vivo, Aedes aegypti; settings: CNMa or saline injected females
# Procedure: (§1) Cohorts of female Ae. aegypti were sampled 8 to 10 days post-eclosion, pre-blood meal (NBF), then at 2, 4, 6, 8, 12, 24, 48, and 72 h PBM. Four or more females from each timepoint were dissected in cold, RNase-free PBS into head, midgut, ovaries, and abdominal body wall and fat body (“pelt”). Tissue samples were immediately frozen and stored at −80 °C. Tissues were thawed on ice, homogenized with a rotor type pestle, and then total RNA was extracted using the RNeasy Mini kit (Qiagen, Venlo, The Netherlands) according to the manufacturer’s instructions. RNA was treated with DNase using the Turbo DNA-free kit (Ambion, Austin, TX, USA). cDNA was synthesized from 100 ng of RNA with the iScript cDNA synthesis kit (BioRad, Hercules, CA, USA) and used as template in qPCR using the Quantifast SYBR Green PCR kit (Qiagen). The primers for each product are listed in Table S1. qPCR was performed on the Qiagen Rotorgene as described in [28]. Absolute standard curves were produced by cloning each qPCR product into the pSCA vector using the Strataclone PCR cloning kit (Agilent, Santa Clara, CA, USA) and preparing plasmid standards of a known copy number. For comparisons between mating status, the copy number of each target was normalized to the copy number of ribosomal protein S7.
# (§2) For e74, expression is relative to e74 expression in AS-treated insects.
# AeCNMaR-1a (AAEL024199) = AeCNMaR-1a (AAEL024199) (Aedes aegypti, UniProt A0A6I8U3V2); test: Receptor activation, aequorin luminescence in CHO-K1 aeq cells expressing AeCNMaR-1a; format: cell-based
# AeCNMaR-1a (AAEL024199), sequence (A0A6I8U3V2 entry or part of it): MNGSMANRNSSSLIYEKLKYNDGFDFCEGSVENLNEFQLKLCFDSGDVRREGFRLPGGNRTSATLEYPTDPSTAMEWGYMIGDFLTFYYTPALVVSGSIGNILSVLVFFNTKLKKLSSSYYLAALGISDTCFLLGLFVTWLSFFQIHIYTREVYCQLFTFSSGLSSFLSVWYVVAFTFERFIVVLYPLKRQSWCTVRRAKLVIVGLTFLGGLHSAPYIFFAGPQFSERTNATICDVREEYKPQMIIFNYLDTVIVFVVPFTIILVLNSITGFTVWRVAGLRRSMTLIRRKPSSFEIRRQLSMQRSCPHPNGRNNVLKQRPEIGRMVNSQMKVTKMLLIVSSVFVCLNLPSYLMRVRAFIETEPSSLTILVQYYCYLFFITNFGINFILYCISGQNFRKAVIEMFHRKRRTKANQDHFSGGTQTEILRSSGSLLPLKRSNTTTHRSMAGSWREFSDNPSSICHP
# From the text: The CNMa peptide was synthesized and HPLC purified (>90% purity) by Royobiotechs (Shanghai, China) based on the published sequence of the AeCNMa peptide sequence. Both the amidated (YMSLCHFKLCNMa) and the non-amidated (YMSLCHFKLCNM) were produced with a disulfide bridge between cysteines 5 and 10. The complete coding sequence of the two putative Ae. aegypti CNMa receptors (VectorBase genes AAEL024199 and AAEL018316, which we henceforth refer to as AeCNMaR-1a and AeCNMaR-1b, respectively) were commercially synthesized (Integrated DNA Technologies) and subsequently subcloned into a pcDNA3.1+ mammalian expression vector [24]. A Chinese hamster ovary cell line stably expressing the calcium-dependent bioluminescent protein aequorin (CHO-K1 aeq) was grown in Dulbecco’s modified eagles medium: nutrient F12 (DMEM:F12) media containing 10% heat-inactivated fetal bovine serum (FBS; Wisent, St. Bruno, QC, Canada), 200 μg/mL geneticin, and an antimycotic-antibiotic mixture as described previously. When cells reached 80–90% confluency, they were transfected using Lipofectamine 3000 transfection reagent following manufacturer recommendations (Life Technologies, Burlington, ON, Canada) to transiently express a mammalian construct in pcDNA3.1+ containing either of the two candidate CNMa receptors or mCherry (pcDNA3.1+ mCherry was a gift from Scott Gradia, Addgene plasmid #30125), the latter of which served as a negative control for the receptor functional assay. After 48 h following transfection, CHO-K1 aeq cells were harvested by dislodging from culture flasks using Dulbecco’s PBS containing EDTA and subsequently resuspended in receptor assay media.
# Other Ae. aegypti peptides used in this study included “capability” (CAPA)-1 (GPTVGLFAFPRV-NH2), CAPA-2 (pQGLVPFPRV-NH2), AedaeCAPA-pyrokinin (PK) 1 (AGNSGANSGMWFGPRL-NH2), adipokinetic/corazonin-like peptide (ACP; pQVTFSRDWNA-NH2), adipokinetic hormone (AKH) (pQLTFTPSW-NH2), and corazonin (CRZ; pQTFQYSRGWTN-NH2). Serial dilutions of the peptide stocks were prepared in bovine serum albumin (BSA) assay media (DMEM:F12 media + 0.1% BSA + 1× antibiotic-antimycotic) to test concentrations ranging from 10 pM to 50 μM. Single concentrations of the various peptides were loaded into individual wells of white 96-well luminescence plates (Greiner Bio-One, Frickenhausen, Germany) with each peptide concentration tested in quadruplicate. CHO-K1 aeq cells expressing either of the two AeCNMa receptors or mCherry were prepared for the functional assay, as described above, and injected into each well of the 96-well luminescence plates by an automated injector unit integrated with the Synergy 2 Multi-Mode Microplate Reader (BioTek, Winooski, VT, USA). The kinetic luminescent response was measured for 10 s immediately following the application of the cells into the wells containing the different peptide treatments or the negative (i.e., BSA media alone) or positive (i.e., 50 μM ATP) controls as described previously. Data was assembled in Microsoft Excel and then analyzed in GraphPad Prism 7.02 (GraphPad Software, San Diego, CA, USA) where the dose–response curves from multiple biological replicates were used to determine the half maximal effective concentrations (EC50).
# [2] = tested on: Ae. aegypti females (decapitated); test: Yolk deposition in blood-fed decapitated females; format: in vivo, Aedes aegypti
# Procedure: (§3) Three- to five-day-old mated females were blood-fed as detailed above, and groups were injected with a range of CNMa in 0.5 μL of saline or saline alone (AS) for a control. Females were allowed to recover and then housed individually in mesh cages. At 3 d PBM, a wet paper towel was provided to the females to facilitate egg laying for up to 48 h and then the number of eggs was counted. To assess possible interactions of CNMa with OEH and ILP3, mated females were blood-fed then decapitated and injected at 1 h PBM with 150 pmol of CNMa, OEH, or ILP3, or combinations of each hormone. Ovaries were dissected at 24 h PBM and yolk deposition was measured along the anterior–posterior axis for five oocytes from each individual, using an ocular micrometer fitted to a dissecting microscope. For CNMa and JH experiments, pupae were isolated in eclosion chambers for 6 h and females were collected. Females were divided into two groups, one which was immediately injected with 150 pmol of CNMa or saline. The other half of the cohort was held for an additional 8 h then injected with the same solutions. At 3 d post-eclosion, females were blood-fed and oviposition was measured for all treatment groups.
# Average amount of yolk per oocyte in mated, blood fed, decapitated females injected with combinations of CNMa (150 pmol), ILP3 (20 pmol), and OEH (20 pmol), Aedes saline (AS), or not injected (intact or decapitation only) at one-hour post blood meal. Error bars show one standard error above and below the mean.
# AeCNMaR-1b (AAEL018316) = AeCNMaR-1b (AAEL018316) (Aedes aegypti, UniProt A0A1S4G7J8); test: Receptor activation, aequorin luminescence in CHO-K1 aeq cells expressing AeCNMaR-1b; format: cell-based; settings: AeCNMaR-1b
# AeCNMaR-1b (AAEL018316), sequence (A0A1S4G7J8 entry or part of it): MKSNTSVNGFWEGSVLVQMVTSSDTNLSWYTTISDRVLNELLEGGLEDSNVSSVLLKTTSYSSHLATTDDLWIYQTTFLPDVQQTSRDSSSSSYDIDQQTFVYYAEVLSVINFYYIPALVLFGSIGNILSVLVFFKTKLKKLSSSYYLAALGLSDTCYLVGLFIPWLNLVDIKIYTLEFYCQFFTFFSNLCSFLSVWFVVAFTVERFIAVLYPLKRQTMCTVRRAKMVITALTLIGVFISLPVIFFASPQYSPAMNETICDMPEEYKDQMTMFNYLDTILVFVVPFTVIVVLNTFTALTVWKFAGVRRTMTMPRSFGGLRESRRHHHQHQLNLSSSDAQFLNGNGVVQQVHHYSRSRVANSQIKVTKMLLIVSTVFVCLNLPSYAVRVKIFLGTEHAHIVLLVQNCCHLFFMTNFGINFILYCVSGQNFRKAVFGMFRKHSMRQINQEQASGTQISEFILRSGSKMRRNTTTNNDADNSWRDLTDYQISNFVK
# From the text: The CNMa peptide was synthesized and HPLC purified (>90% purity) by Royobiotechs (Shanghai, China) based on the published sequence of the AeCNMa peptide sequence. Both the amidated (YMSLCHFKLCNMa) and the non-amidated (YMSLCHFKLCNM) were produced with a disulfide bridge between cysteines 5 and 10. The complete coding sequence of the two putative Ae. aegypti CNMa receptors (VectorBase genes AAEL024199 and AAEL018316, which we henceforth refer to as AeCNMaR-1a and AeCNMaR-1b, respectively) were commercially synthesized (Integrated DNA Technologies) and subsequently subcloned into a pcDNA3.1+ mammalian expression vector [24]. A Chinese hamster ovary cell line stably expressing the calcium-dependent bioluminescent protein aequorin (CHO-K1 aeq) was grown in Dulbecco’s modified eagles medium: nutrient F12 (DMEM:F12) media containing 10% heat-inactivated fetal bovine serum (FBS; Wisent, St. Bruno, QC, Canada), 200 μg/mL geneticin, and an antimycotic-antibiotic mixture as described previously. […]
# Other Ae. aegypti peptides used in this study included “capability” (CAPA)-1 (GPTVGLFAFPRV-NH2), CAPA-2 (pQGLVPFPRV-NH2), AedaeCAPA-pyrokinin (PK) 1 (AGNSGANSGMWFGPRL-NH2), adipokinetic/corazonin-like peptide (ACP; pQVTFSRDWNA-NH2), adipokinetic hormone (AKH) (pQLTFTPSW-NH2), and corazonin (CRZ; pQTFQYSRGWTN-NH2). […] Single concentrations of the various peptides were loaded into individual wells of white 96-well luminescence plates (Greiner Bio-One, Frickenhausen, Germany) with each peptide concentration tested in quadruplicate. CHO-K1 aeq cells expressing either of the two AeCNMa receptors or mCherry were prepared for the functional assay, as described above, and injected into each well of the 96-well luminescence plates by an automated injector unit integrated with the Synergy 2 Multi-Mode Microplate Reader (BioTek, Winooski, VT, USA). The kinetic luminescent response was measured for 10 s immediately following the application of the cells into the wells containing the different peptide treatments or the negative (i.e., BSA media alone) or positive (i.e., 50 μM ATP) controls as described previously. Data was assembled in Microsoft Excel and then analyzed in GraphPad Prism 7.02 (GraphPad Software, San Diego, CA, USA) where the dose–response curves from multiple biological replicates were used to determine the half maximal effective concentrations (EC50).
# [3] = tested on: ecdysteroid-responsive gene e74; test: e74 transcript abundance (qPCR) after injection into females; format: in vivo, Aedes aegypti; settings: CNMa or saline injected females, qPCR relative to AS-treated, MANOVA e74: F3,19 = 0.8192, p = 0.50
# Procedure: as §1, §2
# [4] = tested on: CHO K1 aeq mCherry-expressing cells; test: Negative control: luminescence in CHO-K1 aeq cells expressing mCherry; format: cell-based, Chinese hamster; settings: 1 µM peptide; CHO K1 aeq cells transfected with pcDNA3.1+ mCherry
# From the text: The CNMa peptide was synthesized and HPLC purified (>90% purity) by Royobiotechs (Shanghai, China) based on the published sequence of the AeCNMa peptide sequence. Both the amidated (YMSLCHFKLCNMa) and the non-amidated (YMSLCHFKLCNM) were produced with a disulfide bridge between cysteines 5 and 10. The complete coding sequence of the two putative Ae. aegypti CNMa receptors (VectorBase genes AAEL024199 and AAEL018316, which we henceforth refer to as AeCNMaR-1a and AeCNMaR-1b, respectively) were commercially synthesized (Integrated DNA Technologies) and subsequently subcloned into a pcDNA3.1+ mammalian expression vector [24]. […]
# Other Ae. aegypti peptides used in this study included “capability” (CAPA)-1 (GPTVGLFAFPRV-NH2), CAPA-2 (pQGLVPFPRV-NH2), AedaeCAPA-pyrokinin (PK) 1 (AGNSGANSGMWFGPRL-NH2), adipokinetic/corazonin-like peptide (ACP; pQVTFSRDWNA-NH2), adipokinetic hormone (AKH) (pQLTFTPSW-NH2), and corazonin (CRZ; pQTFQYSRGWTN-NH2). […] Single concentrations of the various peptides were loaded into individual wells of white 96-well luminescence plates (Greiner Bio-One, Frickenhausen, Germany) with each peptide concentration tested in quadruplicate. […]
# Ae. aegypti females = test: Egg laying after injection into mated, blood-fed females; format: in vivo, Aedes aegypti
# Procedure: as §3
# Figure 5 AeCNMa reduces egg clutch size in mated Ae. aegypti females. […] After three days females were allowed to oviposit and eggs were counted 48 h later. […]
substance,measurement,setting,value
"YMSLCHFKLCNMa (disulfide) [AeCNMa, Ae. aegypti CNMa peptide, amidated, HPLC purified (>90% purity)]",kh-1 expression vs saline,"[1]; MANOVA kh-1: F1,20 = 0.5141, p = 0.68",no significant difference in their expression
same,kh-1 expression vs saline,"[1]; MANOVA kh-1: F1,20 = 0.5141, p = 0.68, listed as CNMa",did not significantly impact expression
same,lower concentration activating AeCNMaR-1a than AeCNMaR-1b,AeCNMaR-1a (AAEL024199); AeCNMaR-1a vs AeCNMaR-1b,~ 10 fold
same,increase in sensitivity for the amidated peptide,"AeCNMaR-1a (AAEL024199); AeCNMaR-1a, amidated AeCNMa vs non-amidated AeCNM",9 fold
same,luminescent response vs BSA media background,"AeCNMaR-1a (AAEL024199); AeCNMaR-1a, peptides tested at 1 µM, raw luminescence, one-way ANOVA and Dunnett's test",significant response several orders of magnitude over the BSA media background luminescent response
same,"yolk uptake, CNMa only","[2]; CNMa 150 pmol at 1 h post blood meal, decapitated females, vs decapitated only and AS control, Tukey's HSD",not significantly different from decapitated only and AS control treatments
same,"yolk uptake, CNMa and ILP3","[2]; CNMa 150 pmol, ILP3 20 pmol at 1 h post blood meal, vs ILP3 only and ILP3 and OEH, Tukey's HSD",no significant difference in yolk uptake
same,"yolk uptake, CNMa + OEH + ILP3","[2]; CNMa 150 pmol, ILP3 20 pmol, OEH 20 pmol at 1 h post blood meal, vs ILP3 + OEH injected females, Tukey's HSD",no significant difference in yolk uptake
same,"yolk uptake, OEH + CNMa","[2]; CNMa 150 pmol, OEH 20 pmol at 1 h post blood meal, vs OEH only or OEH + ILP3, Tukey's HSD",no significant difference in yolk uptake relative to OEH only or OEH + ILP3 treatments
same,"effect on yolk deposition elicited by OEH, ILP3, or both peptides together","[2]; decapitated blood-fed females, co-injection","did not affect yolk deposition elicited by OEH, ILP3, or both peptides together"
same,greater sensitivity for the amidated peptide,AeCNMaR-1b (AAEL018316); amidated AeCNMa vs non-amidated AeCNM,2.4 fold
same,luminescent response vs BSA media background,"AeCNMaR-1b (AAEL018316); peptides tested at 1 µM, raw luminescence, one-way ANOVA and Dunnett's test",significant response several orders of magnitude over the BSA media background luminescent response
same,e74 expression vs saline,[3],no significant difference in their expression
same,e74 expression vs saline,[3]; listed as CNMa,did not significantly impact expression
same,luminescence in mCherry-expressing control cells,[4],No luminescence was detected
same,number of eggs laid vs controls,"Ae. aegypti females; 150 pmol injected immediately post blood meal, mated, eggs counted after 3 d + 48 h oviposition, control Aedes saline (AS)","laid significantly fewer eggs than controls; also recorded: produced significantly fewer eggs than controls (p = 0.0087, Wilcoxon rank-sum test)"
same,optimal dose (dose-response assay),Ae. aegypti females; injection into mated,150 pmol
